# Data as given in PubChem BioAssay AID1996.
# Settings: buffer; pH 7.4; 200.0 µM
row,solubility kinetic [µg/mL],Structure (SMILES)
1,51.3,Cl.OC(CN1CCOCC1)Cn1c2c(c3ccccc31)CCCC2 (stereo not drawn)
2,> 37.2,CCn1c(C)cc(=O)cc1-c1ccc(Cl)cc1
3,> 43.8,COc1ccc(Cl)cc1NC(=O)NCc1cccnc1
4,57,CC(C)CN(C(=O)CCNC(=O)c1ccc([N+](=O)[O-])cc1)C1CCS(=O)(=O)C1 (stereo not drawn)
5,6.1,Cn1cnc([N+](=O)[O-])c1Sc1ccc(C(C)(C)C)cc1
6,20.9,CCNc1nc(-c2ccc(OC(F)F)cc2)c(C)s1
7,> 43.9,C=CCNS(=O)(=O)c1cc2c3c(c1)CCN3C(=O)CC2
8,42.3,COc1ccc(NC(=O)N2CCc3ccccc3C2)c(OC)c1
9,4.5,S=C(NCCCc1ccccc1)Nc1ccc(Br)cc1
10,0.3,CCc1ccc(NC(=S)N2CCN(c3cccc(OC)c3)CC2)cc1
11,4.8,Cc1cccc(NC(=O)c2ccc(COc3ccccc3)o2)n1
12,13.2,Cc1noc(C(=O)Nc2ccc(F)cc2F)c1Cl
13,> 49.1,COc1ccc(C(=O)C2CCCN(C(=O)C3=CCCC3)C2)c(C)c1 (stereo not drawn)
14,> 61.3,CC(=O)N1CCN(CC(=O)Nc2cccc(S(=O)(=O)N3CCCCC3)c2)CC1
15,> 49.4,COc1cccc(C(=O)c2c[nH]c(C(=O)NCCCN(C)C)c2)c1
16,> 51.4,Cc1ccc(C)c(NC(=O)C2CCN(C(=O)c3cccs3)CC2)c1
17,0.6,N#C/C(=C\c1ccc2c(c1)OCO2)C(=O)NCc1ccco1
18,> 50.2,COc1ccccc1C1CCN(Cc2c(C)[nH]c3ccccc23)CC1
19,7.5,Cc1ccc(N2C(=O)N(CC(=O)Nc3cc(C)cc(C)c3)C(=O)C2C)cc1 (stereo not drawn)
20,23.2,CC1(c2ccccc2)NC(=O)N(CC(=O)N2CC(=O)Nc3ccccc32)C1=O (stereo not drawn)
21,27.7,O=c1onc(-c2ccccc2)c2ccccc12
22,8.7,Cc1ccc(S(=O)(=O)N2CCN(C(=O)COC(=O)COc3cccc(C(F)(F)F)c3)CC2)c(C)c1
23,39.6,O=C(NC1CCCc2ccccc21)c1ccccc1Cl (stereo not drawn)
24,26.4,N#Cc1ccc(C(=O)N(Cc2ccccc2)c2ccccc2)cc1

row,solubility kinetic [µg/mL],Structure (SMILES)
1,> 41.3,Cc1cc(C(=O)N(CCC#N)Cc2cccs2)no1
2,23.6,CC(=O)c1ccc(OCc2ncc(C(F)(F)F)cc2Cl)cc1
3,10.7,CC(OC(=O)c1ccc(Br)o1)C(=O)NCC1CCCCC1 (stereo not drawn)
4,34,COc1ccc(O)c(CNc2ccccc2F)c1
5,34.7,CNc1ccc(Br)cc1C(O)c1ccccc1 (stereo not drawn)
6,33.8,CCCCNC(=O)CN1C(=O)NC(CCc2ccccc2)C1=O (stereo not drawn)
7,60.5,CC(=O)N1CCN(S(=O)(=O)c2cccc(C(=O)OCC(=O)N(Cc3ccccc3)C(C)(C)C)c2)CC1
8,> 31.1,CC1CCCCC1NC(=O)c1ccco1 (stereo not drawn)
9,> 48.9,CC(=O)Nc1c2c(nn1-c1cccc(Cl)c1)CS(=O)(=O)C2
10,> 41.3,O=C(NN1CCOCC1)c1cc(Cl)ccc1Cl
11,> 45.4,Cc1[nH]c2ccccc2c1SCC(=O)NC1CCCCC1
12,8.1,CC1(C)CC(=O)N(c2cccc(C(F)(F)F)c2)C(=O)C1
13,36.7,O=C(O)C1CCC(CNCc2ccncc2)CC1 (stereo not drawn)
14,> 50.3,N#Cc1ccc(OCC(O)CS(=O)(=O)c2ccc(F)cc2)cc1 (stereo not drawn)
15,< 0.8,CCc1ccc(NC(=O)c2cc(Br)ccc2Br)cc1
16,> 40.4,COc1ccc(C(=O)/C=C/c2cccnc2)c(OC)c1
17,> 45.3,Cc1ccoc1C(=O)N1CCN(C(=O)c2occc2C)CC1
18,26.4,CN(Cc1ccccc1)c1nc(N)nc(Cl)c1C=O
19,> 41.1,N#C/C(=C\c1cccs1)C(=O)c1ccccc1Cl
20,> 44.2,CN(C)C(=O)c1cc(C(=O)c2ccc(F)cc2Cl)c[nH]1
21,> 48.5,CNC(=O)CN1C(=O)NC(c2ccccc2)(c2ccccc2)C1=O
22,15,CCCc1nc(-c2cc3cc(C)ccc3[nH]c2=O)no1
23,22.9,OCCCc1cn(Cc2ccccc2)c2ccccc12
24,22.3,CN1CCN(C(=O)CCN2C(=O)/C(=C\c3ccc(F)cc3)SC2=S)CC1

row,solubility kinetic [µg/mL],Structure (SMILES)
1,> 55.2,Cc1ccc(-c2c[n+](CC(=O)Nc3ccccc3)c3n2CCC3)cc1.[Cl-]
2,> 47,Cc1ccc(-c2csc3ncn(CC(N)=O)c(=O)c23)cc1C
3,46.4,CC1(C)CC2(CCCN(C(=S)Nc3ccccc3)C2)CCO1 (stereo not drawn)
4,> 37.5,Cc1cc(NC(=O)COC(=O)c2ccco2)no1
5,38.5,CCOc1ccc(S(=O)(=O)NCc2cccnc2)c2ccccc12
6,> 42.1,CCc1ccccc1NC(=O)N1CCc2ccccc2C1
7,53.4,CN(CC(=O)Nc1c(Cl)cccc1Cl)C(=O)CCC1CCCC1
8,27.2,CCOc1cccc(/C=C(\C#N)C(=O)NC2CC2)c1
9,1.3,CSc1ncnc2sc(C)c(C)c12
10,> 49.7,CCc1cccc(NC(=O)CC2SC(N3CCCC3)=NC2=O)c1 (stereo not drawn)
11,35,Cc1nc(C2COc3ccccc3O2)sc1C(=O)O (stereo not drawn)
12,4.4,CCN(c1ccc(NC(=O)CSc2ccc3c(c2)OCCO3)cc1)C(C)C
13,46.4,COc1ccc(Nc2nc(N)c([N+](=O)[O-])c(NCCO)n2)cc1
14,12.7,CC(NC(=O)c1ccc(F)cc1F)C1CC2CCC1C2 (stereo not drawn)
15,> 49.4,Cc1nc2ccccc2n1CC(=O)OCC(=O)N1CCC(C)CC1
16,39.1,Br.Fc1ccc(CNCC2CCCO2)cc1 (stereo not drawn)
17,22.8,COc1ccc(O)c(/C=C(\C#N)C(=O)Nc2ccccn2)c1
18,< 0.3,Cc1cc(C)cc(NC(=O)c2cc(C)nc3ccccc23)c1
19,3.6,O=C(N/C(=C\c1ccco1)C(=O)N1CCCCC1)c1ccc([N+](=O)[O-])cc1
20,47.9,CC(C1CCN(Cc2nc(C3CC3)no2)CC1)N1CCOCC1 (stereo not drawn)
21,> 39.2,Cc1cc(S(=O)(=O)N2CCOCC2)c(C)s1
22,18.4,CC(OC(=O)[C@@H]1CCCN1C(=O)c1cccs1)C(=O)Nc1cccc([N+](=O)[O-])c1 (stereo partly drawn)
23,0.3,Clc1nc(NCc2ccco2)nc(N2CCCCC2)n1
24,< 0.6,CC(=O)c1c(C)n(-c2ccc(Cl)cc2)c2ccc(O)cc12

row,solubility kinetic [µg/mL],Structure (SMILES)
1,0.6,S=C(NCCc1ccccc1)Nc1ccc(N2CCCCC2)cc1
2,> 56.4,CN(CC(=O)NCCN1CCOCC1)S(=O)(=O)c1ccc(Cl)cc1
3,> 66.1,Cc1c(NS(=O)(=O)c2cccc(C(=O)N3CCCC3)c2)c(=O)n(-c2ccccc2)n1C
4,38.2,COc1ccc(-c2csc(NC(=O)[C@H](C)N3C(=O)C4CC=CCC4C3=O)n2)cc1OC (stereo partly drawn)
5,> 46.4,Cc1ccc(C(=O)NC2(O)C(=O)c3ccccc3C2=O)cc1C
6,1.4,CN=C1S/C(=C\c2ccc(SC)cc2)C(=O)N1C
7,41.9,O=[N+]([O-])c1ccc(N(CC2CO2)S(=O)(=O)c2ccccc2)cc1 (stereo not drawn)
8,5.2,Cc1ccc(CS(=O)(=O)CCC(=O)NCCc2ccccc2)cc1
9,41.9,O=S1(=O)CCN(Cc2cccc(C(F)(F)F)c2)CC1
10,> 36.3,Cc1cccc(NC(=O)c2cc[n+]([O-])cc2)c1C
11,2.9,CC(=O)Oc1ccc(-c2nc3c(C)cccc3c(=O)o2)cc1
12,> 42.6,N#C/C(=C\c1ccccc1)C(=O)OCC(=O)N1CCCC1
13,> 47.3,Cc1cc(C(=O)N2CCN(c3ccc([N+](=O)[O-])cc3)CC2)co1
14,11.5,O=S(=O)(c1ccc(-c2ccon2)s1)N1CCCC1
15,> 41.8,CCCCOc1ccc(C(=O)NN2CCOCC2)cc1
16,0.6,O=C(/C=C/C(=O)NCc1cccs1)NCc1cccs1
17,< 0.2,N/C(=N\c1nc2ccccc2o1)NC(=O)c1cccc(Cl)c1
18,> 46,CN(C)/C(=N\S(=O)(=O)c1ccccc1)c1ccc(F)cc1
19,30.7,Cc1cc(C)cc(NC(=S)N(C)C)c1
20,60.1,CC1(C)[C@H]2CC[C@]1(C)[C@@H](OC(=O)C[N+]1(C)CCOCC1)C2.[I-]
21,13.6,COc1ccc2c(c1)c1ncn(Cc3ccccn3)c(=O)c1n2C
22,1.9,O=C(Nc1ncc(Cc2cccc(Cl)c2Cl)s1)C1CCCO1 (stereo not drawn)
23,4.3,CCc1ccc(NC(=O)CCC(=O)c2ccc(C)cc2)cc1
24,> 44.6,Cc1cccc(C(=O)NCCCNC(=O)c2ccccn2)c1

row,solubility kinetic [µg/mL],Structure (SMILES)
1,0.8,CCc1nc2sc3ccccc3c(=O)c2c(=O)n1Cc1ccc(OC)cc1
2,23.1,Cc1ccc(NC(=O)CN2CCc3ccccc3C2)cc1F
3,> 61.6,COC(=O)C(Cc1ccccc1)NC(=O)CCC(=O)NC(C)CCc1ccccc1 (stereo not drawn)
4,0.4,Cc1onc(-c2ccccc2)c1CNC(=O)Nc1ccc(C(F)(F)F)cc1
5,> 47.9,CC1CCCCC12NC(=O)N(CC(=O)NCc1ccco1)C2=O (stereo not drawn)
6,> 52.4,COc1ccc(NC(=S)N(CCN(C)C)Cc2cccs2)cc1
7,46.1,CC(Sc1nc2c(c(=O)[nH]1)CCCC2)C(=O)Nc1ccccc1C#N (stereo not drawn)
8,4.4,CCCCCC(=O)Nc1ncc2c(n1)CC(c1cccs1)CC2=O (stereo not drawn)
9,1.3,Cc1ccc(O)c(NC(=S)NC(=O)Cc2ccc(Cl)cc2)c1
10,> 50.9,O=C(Cn1c(CO)nc2ccccc21)NCc1ccc2c(c1)OCO2
11,17.3,COc1ccc(C(=O)COC(=O)CNC(=O)c2ccc(OC)cc2)cc1
12,0.6,CCc1ccc(NC(=O)NCc2ccc3c(c2)OCO3)cc1
13,< 0.2,Cc1ccc(Nc2nc(-c3ccccc3)cs2)nc1
14,5.1,O=C(COC(=O)c1ccc(Br)o1)Nc1ccc2c(c1)OCCO2
15,> 46,COc1ccc(C(=O)NCC(=O)N2CCCCC2)cc1OC
16,< 0.2,Clc1ccc(-c2ccnc(-n3cccc3)n2)s1
17,48,CN(CCN(C)C(C)(C)C)C(=O)C(c1ccccc1)c1ccccc1
18,16.9,Oc1ccc2oc3c(c2c1C=NCc1ccncc1)CCCC3
19,> 30,O=Cc1cccc(Oc2ncccn2)c1
20,3.1,CCOC(=O)c1cc2c(ccn2C)n1CC(=O)Nc1ccc(F)cc1

row,Structure (SMILES),solubility kinetic [µg/mL]
1,S=C1Nc2ccccc2Sc2ccccc21,1
2,COc1ccc([C@@H](O)[C@@H](N)c2ccccc2)cc1.Cl,41.7
